According to ChEMBL document CHEMBL1201862, “PubChem BioAssay data set” (2004):
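Exposure lasted 48 hours, with cells grown in 96-well plates and compounds tested at five concentrations. GI50 marks 50% less growth.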 Activity calls are given as the source filed them. No stated cut-off is given here; in the data, active = GI50 up to about 1.1 µM and inactive = higher.

Experiments:
Assay in all cases: DTP human tumour cell line panel, 48 h
SF-295 = tested on: SF-295
HCC 2998 = tested on: HCC 2998
M14 = tested on: M14
HCT-116 = tested on: HCT-116
MDA-MB-231 = tested on: MDA-MB-231
LOX IMVI = tested on: LOX IMVI
OVCAR-5 = tested on: OVCAR-5
SNB-19 = tested on: SNB-19
ACHN = tested on: ACHN
A498 = tested on: A498
MDA-MB-435 = tested on: MDA-MB-435
DMS-114 = tested on: DMS-114
T47D = tested on: T47D
UACC-257 = tested on: UACC-257
EKVX = tested on: EKVX
RXF 393 = tested on: RXF 393
SW-620 = tested on: SW-620
MDA-N = tested on: MDA-N
OVCAR-4 = tested on: OVCAR-4
MCF7 = tested on: MCF7

Row | Structure (SMILES) | GI50 (SF-295) | GI50 (HCC 2998) | GI50 (M14) | GI50 (HCT-116) | GI50 (MDA-MB-231) | GI50 (LOX IMVI) | GI50 (OVCAR-5) | GI50 (SNB-19) | GI50 (ACHN) | GI50 (A498) | GI50 (MDA-MB-435) | GI50 (DMS-114) | GI50 (T47D) | GI50 (UACC-257) | GI50 (EKVX) | GI50 (RXF 393) | GI50 (SW-620) | GI50 (MDA-N) | GI50 (OVCAR-4) | GI50 (MCF7)
1 | O=[As]O | > 81.1 µM (inactive) | > 100 µM (inactive) | > 50.5 µM (inactive) | > 93.3 µM (inactive) | > 100 µM (inactive) | > 47.9 µM (inactive) | > 100 µM (inactive) | > 67.5 µM (inactive) | > 100 µM (inactive) | > 74.6 µM (inactive) | > 100 µM (inactive) | 13.1 µM (inactive) | > 100 µM (inactive) | > 48.6 µM (inactive) | > 60 µM (inactive) | > 32.9 µM (inactive) | > 64.1 µM (inactive) | > 100 µM (inactive) | > 91.6 µM (inactive) | 28.6 µM (inactive)
2 | CCc1ccc(/C=C\c2cc(OC)c(OC)c(OC)c2)cc1 | 0.00631 µM (active) | 0.0492 µM (active) | 0.0502 µM (active) | 0.0107 µM (active) | 0.144 µM (active) | 0.0132 µM (active) | 0.391 µM (active) | 0.0148 µM (active) | 0.0285 µM (active) | 0.014 µM (active) | 0.00204 µM (active) | 0.0508 µM (active) | 0.17 µM (active) | 0.0268 µM (active) | 0.887 µM (active) | 0.00908 µM (active) | 0.00897 µM (active) | 0.00168 µM (active) | 0.617 µM (active) | 0.0375 µM (active)
3 | CC(=O)OCC1OC(n2cc(I)c(=O)[nH]c2=O)C(OC(C)=O)C(OC(C)=O)C1OC(C)=O (stereo not given) | > 100 µM (inactive) | > 100 µM (inactive) | > 100 µM (inactive) | > 100 µM (inactive) | – | > 100 µM (inactive) | > 100 µM (inactive) | > 100 µM (inactive) | > 100 µM (inactive) | > 100 µM (inactive) | – | > 100 µM (inactive) | – | > 100 µM (inactive) | > 100 µM (inactive) | > 100 µM (inactive) | > 100 µM (inactive) | – | > 100 µM (inactive) | –
4 | O=C(OC[C@H]1O[C@@H](OC(=O)c2cc(O)c(O)c(O)c2)[C@H](OC(=O)c2cc(O)c(O)c(O)c2)[C@@H](OC(=O)c2cc(O)c(O)c(O)c2)[C@@H]1OC(=O)c1cc(O)c(O)c(O)c1)c1cc(O)c(O)c(O)c1 [PENTAGALLOYL GLUCOSE] | 3.92 µM (inactive) | 3.21 µM (inactive) | 7.23 µM (inactive) | 5.11 µM (inactive) | – | 1.72 µM (inactive) | 7.94 µM (inactive) | 4.88 µM (inactive) | 3.89 µM (inactive) | 6.32 µM (inactive) | – | 4.21 µM (inactive) | – | 14.9 µM (inactive) | 6.04 µM (inactive) | 7.73 µM (inactive) | 6 µM (inactive) | – | 8.91 µM (inactive) | –
